Measurements taken from ChEMBL document CHEMBL3885881, “DrugMatrix”.

Species: Rattus norvegicus
Assay: DrugMatrix - Regimen: Daily Repeat
Assay type: toxicity, organism-based, Sprague-Dawley
Design: regimen Daily Repeat, gender Male, age 6-8 weeks
Details: in vivo, po, route oral GAVAGE, […]; for ABSOLUTE BASOPHIL / ABSOLUTE EOSINOPHIL / ABSOLUTE LYMPHOCYTE / ABSOLUTE MONOCYTE / ABSOLUTE SEGMENTED NEUTROPHIL / BASOPHIL / EOSINOPHIL / ERYTHROCYTE COUNT / HEMATOCRIT / HEMOGLOBIN / LEUKOCYTE COUNT / LYMPHOCYTE / MEAN CORPUSCULAR HEMOGLOBIN / MEAN CORPUSCULAR HEMOGLOBIN CONCENTRATION / MEAN CORPUSCULAR VOLUME / MONOCYTE / NEUTROPHIL / NUCLEATED RED BLOOD CELLS / PLATELET COUNT: tissue Blood; for ALANINE AMINOTRANSFERASE / ALBUMIN / ALKALINE PHOSPHATASE / ASPARTATE AMINOTRANSFERASE / BLOOD UREA NITROGEN / CARBON DIOXIDE / CHLORIDE / CHOLESTEROL / CREATINE PHOSPHOKINASE / CREATININE / GLUCOSE / LACTATE DEHYDROGENASE / LIPASE / PHOSPHORUS / SODIUM / TOTAL BILIRUBIN / TOTAL PROTEIN / URIC ACID: tissue Plasma
[1] = 0 mg/kg, 72 h, dose level Control, time 3 day
[2] = 0 mg/kg, 120 h, dose level Control, time 5 day
[3] = 450 mg/kg, 72 h, dose level Low, time 3 day

Question: For `CC[C@H](C)C(=O)O[C@H]1C[C@@H](C)C=C2C=C[C@H](C)[C@H](CC[C@@H]3C[C@@H](O)CC(=O)O3)[C@H]21` [LOVASTATIN], which “ABSOLUTE BASOPHIL” value [1] is on record?
Answer: 0 CELLS/uL

Question: And the “ABSOLUTE EOSINOPHIL” value [1]?
Answer: 52.33 CELLS/uL

Question: And the “ABSOLUTE LYMPHOCYTE” value [1]?
Answer: 9105.33 CELLS/uL

Question: And the “ABSOLUTE MONOCYTE” value [1]?
Answer: 155.67 CELLS/uL

Question: What about the “ABSOLUTE SEGMENTED NEUTROPHIL” value [1] of the same compound?
Answer: 1020 CELLS/uL

Question: And the BASOPHIL [1]?
Answer: 0%

Question: What about the EOSINOPHIL [1] of the same compound?
Answer: 0.33%

Question: What about the “ERYTHROCYTE COUNT” value [1] of the same compound?
Answer: 5.03 x10E6/uL

Question: What about the HEMATOCRIT [1] of the same compound?
Answer: 31.63%

Question: What about the HEMOGLOBIN [1] of the same compound?
Answer: 12.37 G/DL

Question: What about the “LEUKOCYTE COUNT” value [1] of the same compound?
Answer: 10.33 x10E3/uL

Question: And the LYMPHOCYTE [1]?
Answer: 87%

Question: And the “MEAN CORPUSCULAR HEMOGLOBIN” value [1]?
Answer: 24.57 pg

Question: And the “MEAN CORPUSCULAR HEMOGLOBIN CONCENTRATION” value [1]?
Answer: 39.07 G/DL

Question: What about the “MEAN CORPUSCULAR VOLUME” value [1] of the same compound?
Answer: 62.93 fL

Question: What about the MONOCYTE [1] of the same compound?
Answer: 1.33%

Question: What about the NEUTROPHIL [1] of the same compound?
Answer: 11.33%

Question: What about the “NUCLEATED RED BLOOD CELLS” value [1] of the same compound?
Answer: 0 /100WBC

Question: And the “PLATELET COUNT” value [1]?
Answer: 896 x10E3/uL

Question: What about the “ALANINE AMINOTRANSFERASE” value [1] of the same compound?
Answer: 75.33 u/L

Question: And the ALBUMIN [1]?
Answer: 3.77 G/DL

Question: And the “ALKALINE PHOSPHATASE” value [1]?
Answer: 378.67 u/L

Question: And the “ASPARTATE AMINOTRANSFERASE” value [1]?
Answer: 101.33 u/L

Question: What about the “BLOOD UREA NITROGEN” value [1] of the same compound?
Answer: 11.33 mg/dL

Question: And the “CARBON DIOXIDE” value [1]?
Answer: 25 mmol/L

Question: What about the CHLORIDE [1] of the same compound?
Answer: 99 MEQ/L

Question: What about the CHOLESTEROL [1] of the same compound?
Answer: 66 mg/dL

Question: What about the “CREATINE PHOSPHOKINASE” value [1] of the same compound?
Answer: 277 u/L

Question: And the CREATININE [1]?
Answer: 0.33 mg/dL

Question: What about the GLUCOSE [1] of the same compound?
Answer: 198.33 mg/dL

Question: And the “LACTATE DEHYDROGENASE” value [1]?
Answer: 140.33 u/L

Question: What about the LIPASE [1] of the same compound?
Answer: 11.33 u/L

Question: And the PHOSPHORUS [1]?
Answer: 11.83 mg/dL

Question: What about the SODIUM [1] of the same compound?
Answer: 141.03 MEQ/L

Question: And the “TOTAL BILIRUBIN” value [1]?
Answer: 0.2 mg/dL

Question: What about the “TOTAL PROTEIN” value [1] of the same compound?
Answer: 5.47 G/DL

Question: What about the “URIC ACID” value [1] of the same compound?
Answer: 0.93 mg/dL

Question: And the “ABSOLUTE BASOPHIL” value [2]?
Answer: 0 CELLS/uL

Question: What about the “ABSOLUTE EOSINOPHIL” value [2] of the same compound?
Answer: 0 CELLS/uL

Question: And the “ABSOLUTE LYMPHOCYTE” value [2]?
Answer: 8734 CELLS/uL

Question: And the “ABSOLUTE MONOCYTE” value [2]?
Answer: 98.67 CELLS/uL

Question: What about the “ABSOLUTE SEGMENTED NEUTROPHIL” value [2] of the same compound?
Answer: 1034 CELLS/uL

Question: What about the BASOPHIL [2] of the same compound?
Answer: 0%

Question: And the EOSINOPHIL [2]?
Answer: 0%

Question: And the “ERYTHROCYTE COUNT” value [2]?
Answer: 5.19 x10E6/uL

Question: What about the HEMATOCRIT [2] of the same compound?
Answer: 33.2%

Question: And the HEMOGLOBIN [2]?
Answer: 12.93 G/DL

Question: And the “LEUKOCYTE COUNT” value [2]?
Answer: 9.87 x10E3/uL

Question: What about the LYMPHOCYTE [2] of the same compound?
Answer: 87%

Question: What about the “MEAN CORPUSCULAR HEMOGLOBIN” value [2] of the same compound?
Answer: 25 pg

Question: And the “MEAN CORPUSCULAR HEMOGLOBIN CONCENTRATION” value [2]?
Answer: 39.03 G/DL

Question: And the “MEAN CORPUSCULAR VOLUME” value [2]?
Answer: 63.93 fL

Question: What about the MONOCYTE [2] of the same compound?
Answer: 1%

Question: And the NEUTROPHIL [2]?
Answer: 12%

Question: And the “NUCLEATED RED BLOOD CELLS” value [2]?
Answer: 0 /100WBC

Question: What about the “PLATELET COUNT” value [2] of the same compound?
Answer: 1190 x10E3/uL

Question: And the “ALANINE AMINOTRANSFERASE” value [2]?
Answer: 75.67 u/L

Question: And the ALBUMIN [2]?
Answer: 4 G/DL

Question: And the “ALKALINE PHOSPHATASE” value [2]?
Answer: 384.33 u/L

Question: What about the “ASPARTATE AMINOTRANSFERASE” value [2] of the same compound?
Answer: 89.67 u/L

Question: What about the “BLOOD UREA NITROGEN” value [2] of the same compound?
Answer: 13 mg/dL

Question: What about the “CARBON DIOXIDE” value [2] of the same compound?
Answer: 32.67 mmol/L

Question: What about the CHLORIDE [2] of the same compound?
Answer: 103 MEQ/L

Question: And the CHOLESTEROL [2]?
Answer: 79.67 mg/dL

Question: And the “CREATINE PHOSPHOKINASE” value [2]?
Answer: 199.33 u/L

Question: What about the CREATININE [2] of the same compound?
Answer: 0.29 mg/dL

Question: And the GLUCOSE [2]?
Answer: 161.33 mg/dL

Question: And the “LACTATE DEHYDROGENASE” value [2]?
Answer: 92.33 u/L

Question: And the LIPASE [2]?
Answer: 11.67 u/L

Question: What about the PHOSPHORUS [2] of the same compound?
Answer: 10.8 mg/dL

Question: And the SODIUM [2]?
Answer: 145.3 MEQ/L

Question: And the “TOTAL BILIRUBIN” value [2]?
Answer: 0.17 mg/dL

Question: What about the “TOTAL PROTEIN” value [2] of the same compound?
Answer: 5.7 G/DL

Question: What about the “URIC ACID” value [2] of the same compound?
Answer: 0.63 mg/dL

Question: What about the “ABSOLUTE BASOPHIL” value [3] of the same compound?
Answer: 0 CELLS/uL

Question: And the “ABSOLUTE EOSINOPHIL” value [3]?
Answer: 0 CELLS/uL

Question: What about the “ABSOLUTE LYMPHOCYTE” value [3] of the same compound?
Answer: 6372 CELLS/uL

Question: What about the “ABSOLUTE MONOCYTE” value [3] of the same compound?
Answer: 86.67 CELLS/uL

Question: What about the “ABSOLUTE SEGMENTED NEUTROPHIL” value [3] of the same compound?
Answer: 1174.67 CELLS/uL

Question: What about the BASOPHIL [3] of the same compound?
Answer: 0%

Question: What about the EOSINOPHIL [3] of the same compound?
Answer: 0%

Question: And the “ERYTHROCYTE COUNT” value [3]?
Answer: 5.39 x10E6/uL

Question: What about the HEMATOCRIT [3] of the same compound?
Answer: 33.63%

Question: And the HEMOGLOBIN [3]?
Answer: 13.47 G/DL

Question: And the “LEUKOCYTE COUNT” value [3]?
Answer: 7.63 x10E3/uL

Question: What about the LYMPHOCYTE [3] of the same compound?
Answer: 82.67%

Question: And the “MEAN CORPUSCULAR HEMOGLOBIN” value [3]?
Answer: 25 pg

Question: And the “MEAN CORPUSCULAR HEMOGLOBIN CONCENTRATION” value [3]?
Answer: 40.07 G/DL

Question: What about the “MEAN CORPUSCULAR VOLUME” value [3] of the same compound?
Answer: 62.43 fL

Question: What about the MONOCYTE [3] of the same compound?
Answer: 1.33%

Question: And the NEUTROPHIL [3]?
Answer: 16%

Question: What about the “NUCLEATED RED BLOOD CELLS” value [3] of the same compound?
Answer: 0 /100WBC

Question: What about the “PLATELET COUNT” value [3] of the same compound?
Answer: 1202.67 x10E3/uL

Question: What about the “ALANINE AMINOTRANSFERASE” value [3] of the same compound?
Answer: 138.33 u/L

Question: And the ALBUMIN [3]?
Answer: 4.13 G/DL

Question: What about the “ALKALINE PHOSPHATASE” value [3] of the same compound?
Answer: 450.67 u/L

Question: And the “ASPARTATE AMINOTRANSFERASE” value [3]?
Answer: 224.33 u/L

Question: And the “BLOOD UREA NITROGEN” value [3]?
Answer: 11 mg/dL

Question: And the “CARBON DIOXIDE” value [3]?
Answer: 27.67 mmol/L

Question: What about the CHLORIDE [3] of the same compound?
Answer: 97.33 MEQ/L

Question: And the CHOLESTEROL [3]?
Answer: 35 mg/dL

Question: And the “CREATINE PHOSPHOKINASE” value [3]?
Answer: 505 u/L

Question: And the CREATININE [3]?
Answer: 0.16 mg/dL

Question: And the GLUCOSE [3]?
Answer: 146 mg/dL

Question: And the “LACTATE DEHYDROGENASE” value [3]?
Answer: 223.33 u/L

Question: And the LIPASE [3]?
Answer: 10.67 u/L

Question: What about the PHOSPHORUS [3] of the same compound?
Answer: 10.17 mg/dL

Question: And the SODIUM [3]?
Answer: 140.53 MEQ/L

Question: What about the “TOTAL BILIRUBIN” value [3] of the same compound?
Answer: 0.1 mg/dL

Question: And the “TOTAL PROTEIN” value [3]?
Answer: 5.37 G/DL

Question: What about the “URIC ACID” value [3] of the same compound?
Answer: 0.5 mg/dL
